How the values were obtained:
Trichophyton benhamiae = experiment: The compound was evaluated for activity against Trichophyton mentagrophytes; type: functional, Arthroderma benhamiae
Aspergillus niger = experiment: The compound was evaluated for activity against Aspergillus niger; type: functional
Trichoderma viride = experiment: The compound was evaluated for activity against Trichoderma viride; type: functional; design: unit not given here
Aspergillus oryzae = experiment: The compound was evaluated for activity against Aspergillus oryzae; type: functional; design: unit not given here
Albifimbria verrucaria = experiment: The compound was evaluated for activity against Myrothecium verrucaria; type: functional; design: unit not given here
Streptococcus pyogenes = experiment: The compound was evaluated for activity against strain Streptococcus hemolyticus; type: functional; design: unit not given here
Enterococcus faecalis = experiment: The compound was evaluated for activity against strain Streptococcus faecalis; type: functional; design: unit not given here
Staphylococcus aureus = experiment: The compound was evaluated for activity against strain Micrococcus aureus; type: functional; design: unit not given here
Bacillus subtilis = experiment: Inhibitory activity against Bacillus subtilis; type: functional; design: unit not given here

SMILES	-Log C (Trichophyton benhamiae) [mM l-1]	-Log C (Aspergillus niger) [mM l-1]	-Log C (Trichoderma viride)	-Log C (Aspergillus oryzae)	-Log C (Albifimbria verrucaria)	-Log C (Streptococcus pyogenes)	-Log C (Enterococcus faecalis)	-Log C (Staphylococcus aureus)	-Log C (Bacillus subtilis)
Oc1c(F)cc(F)c2cccnc12	1.66	1.36	–	–	–	–	–	–	–
Nc1cc(I)c2cccnc2c1O	2.21	1.15	1.21	1.03	1.51	–	–	–	–
Oc1c(Br)ccc2cccnc12	2.35	1.89	2.35	1.89	2.35	–	–	–	–
O=[N+]([O-])c1cc(Br)c(O)c2ncccc12	2.43	1.01	1.32	0.66	1.72	–	–	–	–
O=[N+]([O-])c1cc(F)c2cccnc2c1O	1.72	1.06	1.06	0.85	1.02	–	–	–	–
Oc1c(F)cc(Cl)c2cccnc12	2.3	2	2.29	1.7	2.29	–	–	–	–
O=[N+]([O-])c1cc(Cl)c(O)c2ncccc12	2.35	0.89	–	–	–	–	–	–	–
O=[N+]([O-])c1ccc2cccnc2c1O	1.8	0.48	1.28	0.28	1.13	–	–	–	–
Oc1c(I)cc(Br)c2cccnc12	2.24	2.07	1.96	1.24	2.24	–	–	–	–
Oc1c(I)cc(F)c2cccnc12	2.46	2	2.46	2.62	1.16	–	–	–	–
Oc1c(F)cc(I)c2cccnc12	2.46	2	2	1.46	2.46	–	–	–	–
Nc1cc(Br)c2cccnc2c1O	1.6	0.57	0.92	0.68	0.96	–	–	–	–
Oc1c(Br)cc(Cl)c2cccnc12	2.11	1.92	–	–	–	–	–	–	–
COC1/C=C/OC2(C)Oc3c(C)c(O)c4c(O)c(cc(OCC(=O)N5CCC(C)CC5)c4c3C2=O)NC(=O)/C(C)=C\C=C\C(C)C(O)C(C)C(O)C(C)C(OC(C)=O)C1C (stereo not drawn)	–	–	–	–	–	7.92	7.27	8.22	6.36
COC1/C=C/OC2(C)Oc3c(C)c(O)c4c(O)c(cc(OCC(=O)N(C)C)c4c3C2=O)NC(=O)/C(C)=C\C=C\C(C)C(O)C(C)C(O)C(C)C(OC(C)=O)C1C (stereo not drawn)	–	–	–	–	–	7.89	6.02	7.12	5.72
COC1/C=C/OC2(C)Oc3c(C)c(O)c4c(O)c(cc(OCC(=O)N(C)CCO)c4c3C2=O)NC(=O)/C(C)=C\C=C\C(C)C(O)C(C)C(O)C(C)C(OC(C)=O)C1C (stereo not drawn)	–	–	–	–	–	7.15	5.85	6.93	5.23
CCCNC(=O)COc1cc2c(O)c3c(O)c(C)c4c(c13)C(=O)C(C)(O/C=C/C(OC)C(C)C(OC(C)=O)C(C)C(O)C(C)C(O)C(C)/C=C/C=C(/C)C(=O)N2)O4 (stereo not drawn)	–	–	–	–	–	6.42	5.82	6.5	5.41
Oc1c(I)cc(Cl)c2cccnc12 [CLIOQUINOL]	2.01	2.01	–	–	–	–	–	–	–

SMILES	-Log C (Trichophyton benhamiae) [mM l-1]	-Log C (Aspergillus niger) [mM l-1]	-Log C (Trichoderma viride)	-Log C (Aspergillus oryzae)	-Log C (Albifimbria verrucaria)	-Log C (Streptococcus pyogenes)	-Log C (Enterococcus faecalis)	-Log C (Staphylococcus aureus)	-Log C (Bacillus subtilis)
COC1/C=C/OC2(C)Oc3c(C)c(O)c4c(O)c(cc(OCC(N)=O)c4c3C2=O)NC(=O)/C(C)=C\C=C\C(C)C(O)C(C)C(O)C(C)C(OC(C)=O)C1C (stereo not drawn)	–	–	–	–	–	6.62	4.91	5.7	4.78
CCCN(C)C(=O)COc1cc2c(O)c3c(O)c(C)c4c(c13)C(=O)C(C)(O/C=C/C(OC)C(C)C(OC(C)=O)C(C)C(O)C(C)C(O)C(C)/C=C/C=C(/C)C(=O)N2)O4 (stereo not drawn)	–	–	–	–	–	8.13	7.31	7.91	6.65
COC1/C=C/OC2(C)Oc3c(C)c(O)c4c(O)c(cc(OCC(=O)N5CCCCC5C)c4c3C2=O)NC(=O)/C(C)=C\C=C\C(C)C(O)C(C)C(O)C(C)C(OC(C)=O)C1C (stereo not drawn)	–	–	–	–	–	7.92	7.45	8.22	6.67
COC1/C=C/OC2(C)Oc3c(C)c(O)c4c(O)c(cc(OCC(=O)N5C(C)COCC5C)c4c3C2=O)NC(=O)/C(C)=C\C=C\C(C)C(O)C(C)C(O)C(C)C(OC(C)=O)C1C (stereo not drawn)	–	–	–	–	–	7.76	6.98	7.93	6.15
O=[N+]([O-])c1cc(Cl)c2cccnc2c1O	1.89	1.15	–	–	–	–	–	–	–
COC1/C=C/OC2(C)Oc3c(C)c(O)c4c(O)c(cc(OCC(=O)N5CCCCC5)c4c3C2=O)NC(=O)/C(C)=C\C=C\C(C)C(O)C(C)C(O)C(C)C(OC(C)=O)C1C (stereo not drawn)	–	–	–	–	–	8.22	6.92	8.01	6.04
C=CCN(CC=C)C(=O)COc1cc2c(O)c3c(O)c(C)c4c(c13)C(=O)C(C)(O/C=C/C(OC)C(C)C(OC(C)=O)C(C)C(O)C(C)C(O)C(C)/C=C/C=C(/C)C(=O)N2)O4 (stereo not drawn)	–	–	–	–	–	8.44	7.22	8.22	6.67
CCN(C(=O)COc1cc2c(O)c3c(O)c(C)c4c(c13)C(=O)C(C)(O/C=C/C(OC)C(C)C(OC(C)=O)C(C)C(O)C(C)C(O)C(C)/C=C/C=C(/C)C(=O)N2)O4)c1ccccc1 (stereo not drawn)	–	–	–	–	–	8.16	7.33	8.46	6.37
COC1/C=C/OC2(C)Oc3c(C)c(O)c4c(O)c(cc(OCC(=O)N(C)C5CCCC5)c4c3C2=O)NC(=O)/C(C)=C\C=C\C(C)C(O)C(C)C(O)C(C)C(OC(C)=O)C1C (stereo not drawn)	–	–	–	–	–	8.22	7.22	8.14	6.36
CCCCN(CCCC)C(=O)COc1cc2c(O)c3c(O)c(C)c4c(c13)C(=O)C(C)(O/C=C/C(OC)C(C)C(OC(C)=O)C(C)C(O)C(C)C(O)C(C)/C=C/C=C(/C)C(=O)N2)O4 (stereo not drawn)	–	–	–	–	–	7.86	7.46	8.46	7.16
CCNC(=O)COc1cc2c(O)c3c(O)c(C)c4c(c13)C(=O)C(C)(O/C=C/C(OC)C(C)C(OC(C)=O)C(C)C(O)C(C)C(O)C(C)/C=C/C=C(/C)C(=O)N2)O4 (stereo not drawn)	–	–	–	–	–	7.5	6.2	6.99	5.4
Oc1c(Cl)ccc2cccnc12	2.25	1.77	–	–	–	–	–	–	–
COC1/C=C/OC2(C)Oc3c(C)c(O)c4c(O)c(cc(OCC(=O)N5CCCCCC5)c4c3C2=O)NC(=O)/C(C)=C\C=C\C(C)C(O)C(C)C(O)C(C)C(OC(C)=O)C1C (stereo not drawn)	–	–	–	–	–	7.92	7.45	8.32	6.45
COC1/C=C/OC2(C)Oc3c(C)c(O)c4c(O)c(cc(OCC(=O)Nc5ccc(Br)cc5)c4c3C2=O)NC(=O)/C(C)=C\C=C\C(C)C(O)C(C)C(O)C(C)C(OC(C)=O)C1C (stereo not drawn)	–	–	–	–	–	6.66	6.56	6.48	5.78
COC1/C=C/OC2(C)Oc3c(C)c(O)c4c(O)c(cc(OCC(=O)N(CC(C)C)CC(C)C)c4c3C2=O)NC(=O)/C(C)=C\C=C\C(C)C(O)C(C)C(O)C(C)C(OC(C)=O)C1C (stereo not drawn)	–	–	–	–	–	8.16	7.86	8.86	7.28
CCN(CCO)C(=O)COc1cc2c(O)c3c(O)c(C)c4c(c13)C(=O)C(C)(O/C=C/C(OC)C(C)C(OC(C)=O)C(C)C(O)C(C)C(O)C(C)/C=C/C=C(/C)C(=O)N2)O4 (stereo not drawn)	–	–	–	–	–	6.96	6.18	7.52	5.73
COC1/C=C/OC2(C)Oc3c(C)c(O)c4c(O)c(cc(OCC(=O)N5C(C)CCC5C)c4c3C2=O)NC(=O)/C(C)=C\C=C\C(C)C(O)C(C)C(O)C(C)C(OC(C)=O)C1C (stereo not drawn)	–	–	–	–	–	8.22	7.45	8.22	6.67

— ChEMBL document CHEMBL1121427, “Decomposition of pharmacological activity indices into mutually independent components using principal component analysis” (J Med Chem, 1980)
